Patent US8460669B2, “Compositions and methods for identifying response targets and treating flavivirus infection responses” (Academia Sinica, priority 2005, dated 2013)

Assays:
[1] = biological target: T1, CLEC-6 (Homo sapiens, UniProt Q8WXI8); experiment: Sugar competition EIA, Fc.CLEC-6 binding to GLPS-F3; conditions: sugar 1 mg/ml
T1 construct: The extracellular domains of lectin receptors, TREMs and TLTs were cloned by the reverse-transcriptase polymerase chain reaction (RT-PCR); made in house; host or cells: 293-F (FreeStyle 293) cells
T1 sequence (Q8WXI8 39-215 limits assumed): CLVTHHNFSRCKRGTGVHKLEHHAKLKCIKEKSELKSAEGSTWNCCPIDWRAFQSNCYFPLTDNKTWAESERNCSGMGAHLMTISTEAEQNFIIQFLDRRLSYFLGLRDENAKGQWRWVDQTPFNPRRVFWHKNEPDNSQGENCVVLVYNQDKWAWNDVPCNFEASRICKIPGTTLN
Procedure: The interaction between GLPS-F3 and receptor.Fc was then tested. Unbiotinylated GLPS-F3 was immobilized at 100 ng/well as described above, and 100 μL receptor.Fc fusion protein (1 μg/ml in 2 mM MgCl2/2 mM CaCl2/1% BSA/TBST) was added into each well and incubated for 1 hour at room temperature. After washing with TBST, wells were incubated with peroxidase-conjugated goat anti-human IgG Ab (1:5000 dilution, Jackson ImmunoResearch Laboratories) in blocking buffer at room temperature for 30 min. Wells were incubated with 100 μL TMB substrate for 15 min after TBST washing and read at 450 nm in a Fusion plate reader (Perkin Elmer). The results were normalized with respect to Fc.Dectin-1 binding (Dectin-1 is a known lectin receptor that binds to β-1,3-glucan which is the backbone found in GLPS-F3). FIG. 6B depicts in graphical form the affinity of each receptor for GLPS-F3 relative to Dectin-1. […] There was also weaker but positive GLPS-F3 binding ability (25-50% binding intensity compared to Fc.dectin-1) found in Fc.NKG2D, Fc.MINCLE, Fc.mKCR, DCAL1.Fc, DEC205.Fc, Endo180.Fc and NKp30(NCR3).Fc.
To understand the interaction of GLPS-F3 with specific innate immunity receptors, the polysaccharides mannan and β-glucan and the monosaccharides D-mannose (Man), D-glucose (Glc), N-acetyl-glucosamine (GlcNAc), D-galactose (Gal), N-acetyl-galactosamine (GalNAc), L-fucose (Fuc) and sialic acid, were used in a competition assay. […] The assays were carried out as in Example 9, with the addition of 1 mg/ml of each polysaccharide or monosaccharide.

[2] = biological target: T2, TLT-2.Fc (Homo sapiens, UniProt Q5T2D2); experiment: Immunosorbent dot binding assay with TLT-2.Fc; conditions: polysaccharide immobilized on PVDF membrane; receptor.Fc 1 μg/mL
T2 construct: The extracellular domains of lectin receptors, TREMs and TLTs were cloned by the reverse-transcriptase polymerase chain reaction (RT-PCR); made in house; host or cells: 293-F (FreeStyle 293) cells
T2 sequence (Q5T2D2 19-268 limits assumed): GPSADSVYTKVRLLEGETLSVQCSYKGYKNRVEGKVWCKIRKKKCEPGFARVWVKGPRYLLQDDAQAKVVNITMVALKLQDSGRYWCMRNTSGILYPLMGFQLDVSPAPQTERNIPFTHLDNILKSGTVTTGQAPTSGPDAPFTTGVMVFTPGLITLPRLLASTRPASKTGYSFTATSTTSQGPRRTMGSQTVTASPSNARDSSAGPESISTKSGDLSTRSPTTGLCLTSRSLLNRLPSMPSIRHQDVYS

[3] = biological target: T3, KCR.Fc (Mus musculus, UniProt P70194); experiment: Immunosorbent dot binding assay with KCR.Fc; conditions: polysaccharide immobilized on PVDF membrane; receptor.Fc 1 μg/mL
T3 construct: the extracellular domains of DVLR1/CLEC5A (MDL-1), Dectin-1, KCR, and DC-SIGN (as a positive control) were fused to the Fc portion of human IgG1; made in house; host or cells: 293-F (FreeStyle 293) cells
T3 sequence (P70194 70-548 limits assumed): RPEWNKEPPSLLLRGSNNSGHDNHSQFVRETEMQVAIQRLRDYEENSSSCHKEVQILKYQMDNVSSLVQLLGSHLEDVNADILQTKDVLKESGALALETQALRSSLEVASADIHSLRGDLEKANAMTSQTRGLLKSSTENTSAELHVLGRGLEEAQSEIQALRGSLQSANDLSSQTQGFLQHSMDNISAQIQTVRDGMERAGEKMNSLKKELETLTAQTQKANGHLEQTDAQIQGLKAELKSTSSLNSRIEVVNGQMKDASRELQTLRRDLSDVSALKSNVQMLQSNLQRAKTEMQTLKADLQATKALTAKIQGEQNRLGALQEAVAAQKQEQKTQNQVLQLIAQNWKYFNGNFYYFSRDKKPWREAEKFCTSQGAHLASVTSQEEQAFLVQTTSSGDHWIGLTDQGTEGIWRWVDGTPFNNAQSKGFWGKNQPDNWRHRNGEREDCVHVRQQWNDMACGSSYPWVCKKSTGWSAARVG

[4] = biological target: T4, DVLR1/CLEC5A (Homo sapiens, UniProt Q9NY25); experiment: Sugar competition, biotinylated DV binding to DVLR1/CLEC5A-transfected 293T cells; assay type: cell-based; conditions: flow cytometry
T4 construct: expressed in transfected cells; host or cells: 293T cells
T4 sequence (Q9NY25 1-187 isoform Q9NY25-2): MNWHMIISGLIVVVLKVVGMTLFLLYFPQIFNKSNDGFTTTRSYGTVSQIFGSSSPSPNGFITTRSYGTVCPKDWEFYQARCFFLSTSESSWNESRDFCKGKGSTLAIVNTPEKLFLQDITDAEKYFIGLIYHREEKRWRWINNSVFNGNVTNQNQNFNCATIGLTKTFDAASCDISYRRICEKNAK
Procedure: In FIG. 16b, complexes of DV (5×10^6 PFU) with receptor.Fc (5 μg) were immunoprecipitated and detected on westerns with mAb to DV envelope (E) protein. […] FIGS. 16d and 16e show sugar competition assays wherein both DC-SIGN (CLEC4L) and DVLR1/CLEC5A increase DV binding to human 293T cells (FIG. 16d), while addition of sugars inhibits biotinylated DV binding to DC-SIGN- (left panel) or DLVR1/CLEC5A- (right panel) transfected 293T cells in a dose-dependent manner as determined by flow cytometry (FIG. 16e). According to FIG. 16e, MFI represents mean fluorescence intensity. Units (U) for monosaccharide (mannose and fucose) and polysaccharide (mannan) are mM and mg/ml, respectively. […] Data are expressed as the mean±s.d. of three independent experiments. Two-tailed, Student's t-tests were performed.
There are two conserved N-linked glycosylation sites at Asn-67 and Asn-153 of E protein (Pokidysheva, E. et al., Cell 124:485-93 (2006)), and the attached glycans (with terminal fucose and mannose) have been implicated in cellular attachment and viral entry (Modis, Y. et al., J. Virol. 79:1223-1231 (2005)). To investigate the participation of glycans in the association of DVLR1/CLEC5A with DV, virions were incubated with fucose, mannose, or mannan; where the last two sugars are the ligands for DC-SIGN (Mitchell et al., J. Biol. Chem. 276: 28939-28945 ([…])).

Compound	Percentage of binding of CLEC-6 Fc fusion to GLPS-F3 relative to binding in absence of sugar competitor [1] [%]	interaction with TLT-2.Fc in dot-binding assay [2]	interaction with KCR.Fc in dot-binding assay [3]	inhibition of binding of DVLR1/CLEC5A to DV [4]
β-1,3-glucan [b-glucan]	98 ± 7.3	only Dectin-1.Fc can bind	only Dectin-1.Fc can bind	–
mannan	75 ± 0.8	–	–	to a lesser extent
C[C@H](O)[C@@H](O)[C@@H](O)[C@H](O)C=O [Fuc, L-fucose]	82 ± 6.5	–	–	significantly reduced
